Results taken from patent US11752141B2, “Pharmaceutical compositions and methods utilizing neostigmine and an NK-1 antagonist for treating myasthenia gravis” (priority 2017, dated 2023).

Test system: human subjects
Assay: Phase I single-blind, placebo-controlled study of pyridostigmine bromide with or without aprepitant
Format: in vivo
Settings: single oral dose of aprepitant (up to 125 mg) co-administered with first intolerable dose (FID) of oral pyridostigmine bromide; healthy volunteers; follow-up up to 8 hours
Description: The ability of the NK1-antagonists for preventing the adverse effects of pyridostigmine bromide in humans is tested.
A Phase I study is conducted in human subjects receiving a single oral dose of pyridostigmine bromide with or without a single oral dose of aprepitant, as a representative NK1-antagonist. The study was a single center, single-blind, placebo-controlled study.
To be enrolled in the study, participants are to meet the following inclusion/ex elusion criteria:
• 1. Male or female volunteers between the ages of 18 and 60 years inclusive are required to be in good health, to refrain from consuming xanthine, quinine and caffeine containing beverages, and to refrain from prolonged intensive physical exercise during the study conduct. • 2. […] Subjects had to be in good health according to their medical history including personal and family psychiatric history, physical examination, ECG, vital signs, and laboratory tests. […] Subjects had to be able to swallow multiple pills simultaneously. Key Exclusion Criteria • 1. Any clinically relevant acute or chronic disease which could interfere with the subjects' safety during the trial, expose them to undue risk, or interfere with the study objectives. • 2. History or presence of gastrointestinal, hepatic, or renal disease or other condition known to interfere with the absorption, distribution, metabolism or excretion of drugs. • 3. […]

## C[C@@H](O[C@H]1OCCN(Cc2nc(=O)[nH][nH]2)[C@H]1c1ccc(F)cc1)c1cc(C(F)(F)F)cc(C(F)(F)F)c1 [aprepitant, 5-[[(2R,3S)-2-[(1R)-1-[3,5-bis(trifluoromethyl)phenyl]ethoxy]-3-(4-fluorophenyl)-4-morpholinyl]methyl]-1,2-dihydro-3H-1,2,4-triazol-3-one]
  occurrence of gastro-intestinal AEs with pyridostigmine: prevents or attenuates
